Test results: patent US20160222122A1, “INTEGRIN-MODULATING THERAPIES FOR TREATING FIBROTIC DISEASE” (The Johns Hopkins University, priority 2013, published 2016)
“Also recorded” adds a separate entry of the source.

Key:
[1] = target: T1, integrin αvβ3 in its active conformation (Homo sapiens, UniProt P05106+P06756); experiment: Specificity of WOW-1 antibody for active integrin αvβ3 in control fibroblasts by flow cytometry; format: cell-based; conditions: 10 mM EDTA, 2 mM MnCl2
T1 construct: endogenous in cells; host or cells: control fibroblasts (read as primary human dermal fibroblasts from healthy controls)
Protocol: For histograms, FlowJo software divides all events into 256 “bins,” which are numerical ranges for the parameter on the x-axis. The percent of maximum (yaxis) is the number of cells in each bin divided by the number of cells in the bin that contains the largest number of cells. Gating for live cells was based on staining with the LIVE/DEAD® Fixable Dead Cell Stain Kit (Invitrogen, cat#L34955). All staining was performed with fluorophore-conjugated primary and isotype control antibodies. All antibodies were either purchased as fluorochrome conjugates or conjugated via amine-based Alexa Fluor antibody labeling kits (cat#A-20181, A20187, A-20185, A-20186, Invitrogen). Mouse and human active αvβ3 was detected fluorophore-conjugated WOW-1 antibody (a gift from Dr. Sanford Shattil). 10 mM Ethylenediaminetetraacetic acid (EDTA) and 2 mM MnCl2 were used as negative and positive controls for αvβ3 activation in flow cytometry experiments (FIG. 20B). Integrin αvβ5, a subtype known to react with the WOW-1 antibody, was monitored in mouse and human cells with a specific antibody (cat#LS-C36943, Lifespan Biosciences).

[2] = test system: Fbn1D1545E/+ and Fbn1W1572C/+ mice (SSS mouse models); experiment: Histology (Masson's trichrome) and immunofluorescence of back skin of treated SSS mice; format: in vivo; conditions: RDEA119 25 mg/kg twice daily oral gavage, 8 weeks
Protocol: (§1) All antibodies used to treat mice or cells were azide-free. Male mice were treated with β1 integrin activating antibody (β1aAb, Rat Clone 9EG7, BD Biosciences, special-ordered >98% pure and azide-free) or an isotype-matched control (Rat IgG2a, κ, special-ordered >98% pure and azide-free, BD Biosciences) by intraperitoneal injection at 2 mg/kg every five days for twelve weeks, beginning at one month of age. Complete blood cell counts were performed to exclude pancytopenia in β1aAb-treated animals (FIG. 20A). For the TGFβ-Neutralizing trial, three-month-old male mice were treated with pan-specific TGFβ-Neutralizing antibody (Mouse Clone 1D11, catalog #MAB1835, R&D) or an isotype control (Mouse IgG1, Clone 11711, cat#MAB002, R&D) by intraperitoneal injection at 10 mg/kg every other day for twelve weeks.
RDEA119 was generously provided by Craig J. Thomas, Samarjit Patnaik, and Juan J. Marugan (National Institutes of Health Chemical Genomics Center, Rockville, Md., USA). […]
For tissue analysis, animals were euthanized through inhalational halothane (Sigma) or anesthetized with isofluorane. […] Dermal and subcutaneous fat thickness was measured using high-powered fields as described previously. […] Active αvβ3 was detected using the WOW-1 antibody (a gift from Dr. Sanford Shattil) and an anti-mouse Alexa Fluor-594 F(ab′)2 fragment secondary (Invitrogen cat#A11020). […]

[3] = test system: Fbn1D1545E/+ and Fbn1W1572C/+ mice (SSS mouse models); experiment: In vivo drug treatment of SSS mouse models: clinical stiffness score and stretched skin area/total surface area ratio; conditions: RDEA119 25 mg/kg twice daily by oral gavage, 8 weeks from 1 month of age
Protocol: as §1
RDEA119 was generously provided by Craig J. Thomas, Samarjit Patnaik, and Juan J. Marugan (National Institutes of Health Chemical Genomics Center, Rockville, Md., USA). RDEA119 was reconstituted in 10% 2-hydroxypropyl-betacyclodextrin (Sigma-Aldrich) dissolved in PBS, and administered twice daily by oral gavage at a dose of 25 mg/kg. […]
A clinical stiffness score was assigned by five blinded observers. […] Mice were assessed in random order. […] Early in the course of studies, the same mice were assessed by the same observer on a different day. […]

[4] = test system: SSc fibroblasts; experiment: In vitro TGFβ1 stimulation of SSc dermal fibroblasts, Western blotting of pSMAD3 and pERK1/2; format: cell-based, human
Protocol: (§2) All cells were counted at splitting and all treatments were performed at 70% confluency. Cells were serum starved 48 hours prior to stimulation with 2 ng/mL recombinant TGFβ1 (cat#240-B-010, R&D). When TGFβ1 or vehicle was added, cell culture dishes were immediately rocked on the same rocker three times at 5% CO2, 37° to control for mechanical MAPK activation. Before lysate harvest, cells were washed with pre-warmed (42°) 1×PBS (Gibco®). All antibody treatments of human fibroblasts were added during starvation 48 hours before TGFβ1 stimulation while inhibitors SD208 (1 μM) and UO126 (10 μM) (cat#s 616456 and 662005, EMD Millipore) were added 6 hours prior to stimulation. Antibodies used in vitro were mouse IgG1 (0.2 mg/mL, Clone P3.6.2.8.1, cat#16-4714-81, eBiosciences), IgG2a (0.2 mg/mL, Clone eBM2a, cat#16-4724, eBiosciences), αvβ3-blocking (30 μg/mL, Clone LM609, cat#MAB1976Z, Millipore), β1-activating (7 μg/mL, Clone TS2/16, cat#14-0299, eBiosciences), and β1-blocking (0.2 mg/mL, Clone P4C10, cat#MAB1987Z, Millipore) antibodies.
Before lysate harvest, cells were washed with pre-warmed ([…]) 1×PBS (Gibco®). […] The relative intensities were measured using LiCor Odyssey software. […]

[5] = test system: SSc fibroblasts; experiment: qPCR of miR-29a and collagen mRNAs in cultured SSc fibroblasts; format: cell-based, human; conditions: inhibitors SD208 (1 μM), U0126 (10 μM)
Protocol: Primary human dermal fibroblasts (HDFs) were derived from skin biopsies from 5 patients with active diffuse systemic sclerosis and 6 healthy controls. Biopsies were taken from the forearm and cultured as previously described. All experiments were performed in cell lines at low (<5) passage. Primary mouse embryonic fibroblasts (MEFs) were derived from E13.5 embryos as described previously. Murine plasmacytoid dendritic cells (pDCs) were isolated from the spleens of wild-type C57B16/J mice using the Plasmacytoid Dendritic Cell Isolation Kit II (cat#130-092-786, Miltenyi Biotec) and a midiMACS™ Separator (cat#130-042-302, Miltenyi Biotec) according to the manufacturer's instructions. The pDC-containing cell suspensions routinely had greater than 95% purity, as detected by flow cytometry.
as §2
Total RNA was isolated from cultured cells or tissue using Trizol (Invitrogen) according to the manufacturer's protocol. Quantitative PCR for miR-29a and 18S rRNA was performed using pre-designed Taqman primers and probes (ABI) according to manufacturer's instructions. Relative quantification for each transcript was obtained by normalizing against 18S transcript abundance according to the formula 2^−Ct/2^−Ct(18S).

T1 sequence (P06756 31-889 limits assumed): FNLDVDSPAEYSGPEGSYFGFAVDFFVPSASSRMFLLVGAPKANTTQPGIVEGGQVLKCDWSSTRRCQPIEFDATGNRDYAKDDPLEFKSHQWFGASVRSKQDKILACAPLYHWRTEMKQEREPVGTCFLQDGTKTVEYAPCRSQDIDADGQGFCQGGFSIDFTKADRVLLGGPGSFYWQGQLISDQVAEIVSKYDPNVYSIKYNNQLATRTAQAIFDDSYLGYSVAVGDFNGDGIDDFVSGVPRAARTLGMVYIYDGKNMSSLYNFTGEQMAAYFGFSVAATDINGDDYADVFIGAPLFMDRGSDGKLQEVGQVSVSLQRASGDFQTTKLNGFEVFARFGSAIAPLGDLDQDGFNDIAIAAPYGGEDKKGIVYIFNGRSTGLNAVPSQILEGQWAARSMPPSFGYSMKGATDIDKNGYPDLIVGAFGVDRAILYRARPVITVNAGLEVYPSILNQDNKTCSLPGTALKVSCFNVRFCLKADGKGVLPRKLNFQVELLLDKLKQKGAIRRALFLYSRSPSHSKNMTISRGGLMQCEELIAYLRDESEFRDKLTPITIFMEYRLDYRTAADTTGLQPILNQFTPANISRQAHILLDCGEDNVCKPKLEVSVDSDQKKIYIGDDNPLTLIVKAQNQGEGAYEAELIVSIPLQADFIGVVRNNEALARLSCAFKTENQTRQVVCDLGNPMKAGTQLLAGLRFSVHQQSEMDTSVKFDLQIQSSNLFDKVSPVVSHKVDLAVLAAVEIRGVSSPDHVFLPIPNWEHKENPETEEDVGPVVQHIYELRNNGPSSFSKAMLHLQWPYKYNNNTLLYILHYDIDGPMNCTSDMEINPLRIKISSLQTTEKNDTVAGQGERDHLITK
T1 sequence (P06756 891-1048 partner limits assumed): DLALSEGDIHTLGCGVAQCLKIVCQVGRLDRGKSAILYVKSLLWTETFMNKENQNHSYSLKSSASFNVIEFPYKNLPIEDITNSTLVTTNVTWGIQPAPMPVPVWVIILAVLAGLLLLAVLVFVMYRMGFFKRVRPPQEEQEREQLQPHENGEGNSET
T1 sequence (P05106 27-788): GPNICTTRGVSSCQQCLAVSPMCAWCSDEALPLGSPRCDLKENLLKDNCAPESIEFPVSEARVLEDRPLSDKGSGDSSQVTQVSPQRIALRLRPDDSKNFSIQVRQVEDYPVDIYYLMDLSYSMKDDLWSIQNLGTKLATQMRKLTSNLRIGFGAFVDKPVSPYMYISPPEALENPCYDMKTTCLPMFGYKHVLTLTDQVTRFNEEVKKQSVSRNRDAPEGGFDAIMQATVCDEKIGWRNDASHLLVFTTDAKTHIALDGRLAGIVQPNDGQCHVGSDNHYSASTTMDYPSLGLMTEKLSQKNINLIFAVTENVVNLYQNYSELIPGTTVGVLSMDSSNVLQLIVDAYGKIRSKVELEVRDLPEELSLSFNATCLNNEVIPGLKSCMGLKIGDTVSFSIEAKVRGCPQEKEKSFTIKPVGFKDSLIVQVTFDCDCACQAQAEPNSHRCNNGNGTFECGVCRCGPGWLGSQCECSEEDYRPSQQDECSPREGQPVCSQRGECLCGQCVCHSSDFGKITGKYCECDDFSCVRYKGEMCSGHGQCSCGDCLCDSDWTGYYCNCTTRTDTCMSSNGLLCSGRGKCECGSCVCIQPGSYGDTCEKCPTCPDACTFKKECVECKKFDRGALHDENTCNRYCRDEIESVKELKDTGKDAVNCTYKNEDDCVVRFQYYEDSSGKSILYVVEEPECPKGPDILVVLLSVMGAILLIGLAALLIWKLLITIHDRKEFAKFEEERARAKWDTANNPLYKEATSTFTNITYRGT

| WOW-1 immunoreactivity [1] | Compound | expression of miR-29a [5] | expression of type IA2 and III collagen genes [5] | also measured |
| --- | --- | --- | --- | --- |
| reduced immunoreactivity | O=C(O)CN(CCN(CC(=O)O)CC(=O)O)CC(=O)O [EDTA, Ethylenediaminetetraacetic acid] | – | – | – |
| – | COc1cc(F)c(F)c(Nc2ccc(I)cc2F)c1NS(=O)(=O)C1(C[C@H](O)CO)CC1 [RDEA119] | – | – | dermal collagen accumulation [2]: prevents; loss of subcutaneous fat [2]: prevents; skin stiffness [3]: prevents skin stiffness |
| increased immunoreactivity | [Cl][Mn][Cl] [MnCl2] | – | – | – |
| – | Fc1ccc(Cl)cc1-c1nc(Nc2ccncc2)c2nccnc2n1 [SD208] | increased expression of miR-29a, this finding did not reach significance; also recorded: normalized | normalized | ERK1/2 activation (pERK1/2) in response to TGFβ1 ([4]; 2 ng/mL TGFβ1, 5 minutes, antibodies added 48 hours before, SD208 1 μM 6 hours prior): inhibited; also recorded: sensitive; Smad3 phosphorylation (pSMAD3) in response to TGFβ1 ([4]; 2 ng/mL TGFβ1, SD208 1 μM 6 hours prior): sensitive |
| – | N#CC(=C(/N)Sc1ccccc1N)/C(C#N)=C(\N)Sc1ccccc1N [U0126] | increased miR-29a levels; also recorded: increases miR-29a expression | reduced collagen expression; also recorded: reduces type IA2 and III collagen expression | – |
